According to US20050032124A1, “Identification of genotype-selective agents for treating Huntington's disease” (priority 2003, published 2005):
Converted amounts (≈) assume the structure as drawn. Where two headings read alike, the source gives them in different places.

Assays:
Assay in all cases: Calcein AM viability assay, dilution-series retest
[1] = system: TIP5/TERT cells; type: cell-based, human; conditions: Homo sapiens, 48 h, read-out: IC50, TIP5-TERT
From the text: (§1) In a third series, cell lines derived from independently prepared human TIP5 foreskin fibroblasts created by introducing cDNA constructs encoding hTERT, LT, ST and RASV12 (Lessnick et al., 2002, Cancer Cell 1, 393-401) were used. These cell lines were called, respectively: TIP5/TERT, TIP5/TERT/LT, TIP5/TERT/LT/ST, and TIP5/TERT/LT/ST/RAS^V12. In a fourth series, cell lines derived from TIP5 fibroblasts created by introducing cDNA constructs encoding hTERT, E6, E7, ST and RAS^V12 were used. These cell lines were named, respectively: TIP5/TERT/E6, TIP5/TERT/E6/E7, TIP5/TERT/E6/E7/ST, and TIP5/TERT/E6/E7/ST/RAS^V12. In this series, HPV E6 and E7, which inactivate p53 and RB, respectively, serve a similar function as LT in the previous series. However, by using HPV E6 and E7, Applicants were able to observe the effects of inactivating, separately and independently, p53 and RB. Results of a large-scale screen for compounds that display selective killing of these engineered tumorigenic cell lines are described in the examples that follow.
(§2) Calcein acetoxylmethyl ester (AM) is a cell membrane-permeable, non-fluorescent compound that is cleaved by intracellular esterases to form the anionic, cell-impermeable, fluorescent compound calcein. Viable cells are stained by calcein because of the presence of intracellular esterases and because the intact plasma membrane prevents fluorescent calcein from leaking out of cells (Wang et al., 1993, supra). Cells were seeded in 384-well plates using a Zymark Sciclone ALH, treated with each compound in triplicate at 4 μg/mL in the primary screen for two days, washed with phosphate-buffered saline on a Packard Minitrak with a 384-well washer and incubated for four hours with 0.7 μg/mL calcein (Molecular Probes). Total fluorescence intensity in each well was recorded on a Packard Fusion platereader, and converted to a percent inhibition of signal by subtracting the instrument background and dividing by the average signal obtained when cells were not treated with any compound.
(§3) Replica daughter plates were prepared with a Zymark Sciclone ALH and integrated Twister II by diluting stock plates 50 fold in medium lacking serum and pen/strep to obtain a compound concentration in daughter plates of 80 μg/ml with 2% DMSO. Assay plates were prepared by seeding cells in black, clear bottom 384-well plates in columns 1-23 (6000 cells/well in 57 μl) using a syringe bulk dispenser. Columns 3-22 were treated with compounds from a daughter library plate by transferring 3 μl from the daughter library plate using 384-position fixed cannula array. The final compound concentrations in assay plates were thus 4 μg/ml. The assay plates were incubated for 48 hours at 37° C. in humidified incubator containing 5% CO2. Plate processing for the calcein AM viability assay was performed using an integrated Minitrak/Sidetrak robotic system from Packard Bioscience (Perkin Elmer). Assay plates were washed with phosphate buffered saline, and 20 μl of calcein AM (0.7 μg/ml) per well was added. Plates were incubated at room temperature for 4 hours. Fluorescence intensity was determined using a Fusion platereader with filters centered on an excitation of 485 nm and an emission of 535 nm.
(§4) Compounds to be retested were purchased from manufacturers. Stocks were prepared in DMSO at a concentration of 1 mg/ml in 384-well polypropylene plates with a 16-point, two-fold dilution dose curve of each compound in a column, in duplicates. Column 1-2 and 23-24 were left empty for controls. Daughter retest plates were prepared from stock retest plate by diluting 66.6 fold in DMEM in 384-well deep-deep well plates (4.5 μl transfer into 300 μl). Cells were seeded at a density of 6000 per well in 40 μl, and 20 μl was added from a daughter retest plate. The plates were incubated for two days at 37° C. with 5% CO2.
(§5) Mean RFU (relative fluorescence units) for untreated cells was calculated by averaging columns 1, 2, and 23 (wells with cells but lacking compounds). […]

[2] = system: TIP5/TERT/LT cells; type: cell-based, human; conditions: Homo sapiens, 48 h, read-out: IC50, TIP5 TERT/LT
From the text: as §1, §2, §3, §4, §5

[3] = system: BJ-TERT cells; type: cell-based; conditions: Homo sapiens, 48 h, read-out: IC50, BJ-TERT
From the text: (§6) Described here is work carried out to identify compounds with increased potency or activity in the presence of hTERT, LT, ST, E6, E7 or RAS^V12. Engineered cell lines with these genetic elements were used to screen […] compounds, including 20,000 compounds from a combinatorial library, 1,990 compounds from the National Cancer Institute diversity collection, and 1,540 biologically active known compounds that were selected and purchased by Applicant and formatted into a screenable collection. The primary screen tested (in quadruplicate) the effect of treating tumorigenic BJ-TERT/LT/ST/RAS^V12 engineered tumorigenic cells with each compound for 48 hours at a concentration of 4 μg/mL, corresponding to 10 μM for a compound with a molecular weight of 400, which is the approximate median molecular weight of the libraries. Cell viability was measured using the dye calcein acetoxymethyl ester (calcein AM) (Wang et al., 1993, Hum. Immunol. 3 7, 264-270), which is a non-fluorescent compound that freely diffuses into cells. In live cells, calcein AM is cleaved by intracellular esterases, forming the anionic fluorescent derivative calcein, which cannot diffuse out of live cells. […] The IC50 value (concentration required to inhibit 50% of the calcein AM signal) was calculated for each compound in each cell line (Table 1). […] Following is a more detailed analysis of these nine compounds.
as §2, §3
(§7) Compounds to be retested were purchased from manufacturers. Stocks were prepared in DMSO at a concentration of 1 mg/ml in 384-well polypropylene plates with a 16-point, two-fold dilution dose curve of each compound in a column, in duplicates. Column 1-2 and 23-24 were left empty for controls. […]

[4] = system: BJ-TERT/LT/RAS^V12 cells; type: cell-based; conditions: Homo sapiens, 48 h, read-out: IC50, BJ-TERT/LT/Ras^V12
From the text: as §6, §2, §3, §7

[5] = system: BJ primary cells; type: cell-based, human; conditions: Homo sapiens, 48 h, read-out: concentration required to achieve 50% inhibition of calcein AM staining (IC50), BJ
From the text: as §6, §2, §3, §7

[6] = system: BJ-TERT/LT/ST cells; type: cell-based, human; conditions: Homo sapiens, 48 h, read-out: IC50, BJ-TERT/LT/ST
From the text: as §6, §2, §3, §7

[7] = system: BJ-TERT/LT/RAS^V12/ST cells; type: cell-based, human; conditions: Homo sapiens, 48 h, read-out: IC50, BJ-TERT/LT/Ras^V12/ST
From the text: as §6, §2, §3, §7

[8] = TIP5-TERT cells, 16-point two-fold dilution, two days
[9] = TIP5 TERT/LT cells, 16-point two-fold dilution, two days
[10] = BJ-TERT cells, 16-point two-fold dilution, two days
[11] = BJ-TERT/LT/Ras^V12 cells, 16-point two-fold dilution, two days
[12] = BJ cells, 16-point two-fold dilution, two days
[13] = BJ-TERT/LT/ST cells, 16-point two-fold dilution, two days
[14] = BJ-TERT/LT/Ras^V12/ST cells, 16-point two-fold dilution, two days

| SMILES | IC50 [1] [µg/mL] | IC50 [2] [µg/mL] | IC50 [3] [µg/mL] | IC50 [4] [µg/mL] | IC50 ([5]; BJ) [µg/mL] | IC50 [6] [µg/mL] | IC50 [7] [µg/mL] | IC50 [1, 8] [µg/mL] | IC50 [2, 9] [µg/mL] | IC50 [3, 10] [µg/mL] | IC50 [4, 11] [µg/mL] | IC50 [5, 12] [µg/mL] | IC50 [6, 13] [µg/mL] | IC50 [7, 14] [µg/mL] |
| --- | --- | --- | --- | --- | --- | --- | --- | --- | --- | --- | --- | --- | --- | --- |
| COc1ccc(C[C@H]2C(=O)N[C@@H](C)C(=O)N(C)[C@@H]3C(=O)N(C)[C@@H](Cc4ccc(O)c(c4)Oc4ccc(cc4)[C@@H]3O)C(=O)N[C@H](C)C(=O)N[C@@H](C)C(=O)N2C)cc1 [Bouvardin] | > 5 | 0.312 (≈ 0.404 µM) | 0.078 (≈ 0.101 µM) | 0.078 (≈ 0.101 µM) | 0.312 (≈ 0.404 µM) | 0.0195 (≈ 0.0252 µM) | 0.0195 (≈ 0.0252 µM) | – | – | – | – | – | – | – |
| CC[C@@]1(O)C(=O)OCc2c1cc1n(c2=O)Cc2cc3ccccc3nc2-1 [Camptothecin] | – | – | – | – | – | – | – | > 5 | > 5 | > 5 | 1.25 (≈ 3.59 µM) | > 5 | 1.25 (≈ 3.59 µM) | 0.0195 (≈ 0.056 µM) |
| COc1cccc2c1C(=O)c1c(O)c3c(c(O)c1C2=O)C[C@@](O)(C(C)=O)C[C@@H]3O[C@H]1C[C@H](N)[C@H](O)[C@H](C)O1 [Daunorubicin] | > 5 | 1.25 (≈ 2.37 µM) | 1.25 (≈ 2.37 µM) | 1.25 (≈ 2.37 µM) | 5 (≈ 9.48 µM) | 0.312 (≈ 0.591 µM) | 0.625 (≈ 1.18 µM) | – | – | – | – | – | – | – |
| COc1cccc2c1C(=O)c1c(O)c3c(c(O)c1C2=O)C[C@@](O)(C(=O)CO)C[C@@H]3O[C@H]1C[C@H](N)[C@H](O)[C@H](C)O1 [Doxorubicin] | – | – | – | – | – | – | – | > 5 | 1.25 (≈ 2.3 µM) | 1.25 (≈ 2.3 µM) | 1.25 (≈ 2.3 µM) | > 5 | 0.312 (≈ 0.574 µM) | 1.25 (≈ 2.3 µM) |
| CS[C@H]1SC[C@H]2C(=O)N(C)[C@@H](C(C)C)C(=O)OC[C@@H](NC(=O)c3cnc4ccccc4n3)C(=O)N[C@@H](C)C(=O)N(C)[C@@H]1C(=O)N(C)[C@@H](C(C)C)C(=O)OC[C@@H](NC(=O)c1cnc3ccccc3n1)C(=O)N[C@@H](C)C(=O)N2C [Echinomycin] | > 5 | 5 (≈ 4.54 µM) | 0.312 (≈ 0.283 µM) | 0.0048 (≈ 0.00436 µM) | > 5 | 0.0048 (≈ 0.00436 µM) | 0.0012 (≈ 0.00109 µM) | – | – | – | – | – | – | – |
| CCOc1ccccc1-n1c(C(C)N2CCN(C(=O)COc3ccc(Cl)cc3)CC2)nc2ccccc2c1=O (centres unmarked) [Erastin] | – | – | – | – | – | – | – | > 5 | > 5 | > 5 | > 5 | > 5 | > 5 | 1.25 (≈ 2.28 µM) |
| O=C1c2c(O)ccc(O)c2C(=O)c2c(NCCNCCO)ccc(NCCNCCO)c21 [Mitoxantrone] | – | – | – | – | – | – | – | > 5 | 1.25 (≈ 2.81 µM) | 1.25 (≈ 2.81 µM) | 1.25 (≈ 2.81 µM) | 5 (≈ 11.2 µM) | 0.312 (≈ 0.702 µM) | 0.312 (≈ 0.702 µM) |
| NC(=O)c1cn([C@@H]2O[C@H](CO)[C@@H](O)[C@H]2O)c2ncnc(N)c12 [Sangivamycin] | 1.25 (≈ 4.04 µM) | 0.312 (≈ 1.01 µM) | 0.039 (≈ 0.126 µM) | 0.078 (≈ 0.252 µM) | 0.312 (≈ 1.01 µM) | 0.195 (≈ 0.63 µM) | 0.078 (≈ 0.252 µM) | – | – | – | – | – | – | – |
